# Experimental data taken from patent US11008340B2, “Modulators of ROR-gamma” (Vitae Pharmaceuticals, LLC, priority 2015, dated 2021).
# Read-outs that look alike come from different tables or passages of the source.
# Experiments:
# [1] = target: T1, full-length RORγt in Jurkat cells (Homo sapiens, UniProt P51449); test: RORγt 5×RORE Assay in Jurkat Cells (Assay 2); assay type: cell-based; settings: 5×RORE luciferase reporter
# T1 construct: transcriptional activity of the full-length RORγt in Jurkat cells; host or cells: Jurkat cells (ATCC TIB-152)
# T1 sequence (P51449 1-497 isoform P51449-2): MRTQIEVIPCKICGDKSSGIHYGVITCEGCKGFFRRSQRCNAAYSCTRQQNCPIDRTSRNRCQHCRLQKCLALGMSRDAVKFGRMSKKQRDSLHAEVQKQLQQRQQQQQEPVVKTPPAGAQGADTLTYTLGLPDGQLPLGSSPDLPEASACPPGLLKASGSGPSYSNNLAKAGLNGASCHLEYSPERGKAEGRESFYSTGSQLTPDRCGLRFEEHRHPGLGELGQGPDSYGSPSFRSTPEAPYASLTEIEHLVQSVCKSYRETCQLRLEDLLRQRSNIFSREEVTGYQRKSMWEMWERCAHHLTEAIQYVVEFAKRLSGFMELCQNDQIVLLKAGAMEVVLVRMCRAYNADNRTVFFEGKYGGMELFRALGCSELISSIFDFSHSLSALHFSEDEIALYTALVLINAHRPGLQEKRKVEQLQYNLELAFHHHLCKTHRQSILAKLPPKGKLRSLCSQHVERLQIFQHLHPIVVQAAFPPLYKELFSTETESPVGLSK
# Outline: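 Jurkat cells transiently co-transfected with full-length RORγt expression plasmid and secreted NanoLuc reporter driven by 5×RORE; plated in phenol-red-free RPMI with 10% delipidated FBS. Compounds added at 0.1% DMSO final, 16-18 hrs at 37° C; supernatant luciferase read with NanoGlo as measure of inverse agonism.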
# [2] = target: T2, recombinant RORγ Ligand Binding Domain (LBD) protein (Homo sapiens, UniProt P51449); test: Radio-Ligand RORγ Binding Assay (Assay 1); settings: radio-ligand competition, 25-hydroxy [26,27-3H]-cholesterol, RORγ LBD; read-out: Avg ROR Bind Ki
# T2 construct: 6×His; GST
# T2 sequence (P51449 269-508 limits assumed): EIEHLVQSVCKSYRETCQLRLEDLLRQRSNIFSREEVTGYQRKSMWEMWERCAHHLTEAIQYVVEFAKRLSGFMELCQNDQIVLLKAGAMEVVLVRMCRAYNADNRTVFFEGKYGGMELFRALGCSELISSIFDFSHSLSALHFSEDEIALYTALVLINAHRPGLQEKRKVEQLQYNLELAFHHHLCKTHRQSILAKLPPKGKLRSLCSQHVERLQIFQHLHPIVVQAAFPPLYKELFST
# Outline: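 Cell-free SPA competition between compound and 25-hydroxy[26,27-^3H]-cholesterol for 6×His-GST-tagged RORγ LBD in 50 mM HEPES pH 7.4 with NaCl, MgCl2, glycerol, CHAPS, octylglucoside and DTT. Mix was shaken 20 min, held 10 min at rt, then read after poly-Lys YSi beads. IC50 came from a four-parameter fit, and Ki from radioligand KD.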
# [3] = Table 20, read-out: Avg ROR γt/5x IC5
Compound,"IC50 [1, 3]",Ki [2],IC50 ([1]; read-out: Avg ROR γt/5x IC50)
"CCOC(=O)c1cnc(N2Cc3cc(C(=O)N[C@@H](CO)c4ccc(S(=O)(=O)CC)cc4)ccc3[C@H](CC)C2)nc1 (single isomer, unassigned) [Hy7-34.1]",< 100 nM,< 100 nM,
"CCS(=O)(=O)c1ccc(CNC(=O)c2ccc3c(c2)CN(c2ncc(Cl)cn2)C[C@@H]3C(C)C)cc1 (single isomer, unassigned) [Hy7-3.2]",> 1000 nM,< 100 nM,
"CCS(=O)(=O)c1ccc([C@H](CO)NC(=O)c2ccc3c(OCC4CCC(F)(F)CC4)nc(C)cc3c2)cc1 [Hy1A-14, (R)-1-((4,4-difluorocyclohexyl)methoxy)-N-(1-(4-(ethylsulfonyl)phenyl)-2-hydroxyethyl)-3-methylisoquinoline-6-carboxamide]",,< 100 nM,< 100 nM
"CCS(=O)(=O)c1ccc([C@H](CO)NC(=O)c2cnc3c(C4CC4)n(C[C@H]4CC[C@H](C(F)(F)F)CC4)nc3c2)cc1 [Hy3B-1, 3-cyclopropyl-N-((R)-1-(4-(ethylsulfonyl)phenyl)-2-hydroxyethyl)-2-(((1r,4R)-4-(trifluoromethyl)cyclohexyl)methyl)-2H-pyrazolo[4,3-b]pyridine-6-carboxamide]",,< 100 nM,< 100 nM
"CCS(=O)(=O)c1ccc(CNC(=O)c2ccc3c(c2)CCN(CC2CCN(C(=O)OC)CC2)[C@H]3C(C)C)cc1 [Hy2A-24, methyl (S)-4-((6-((4-(ethylsulfonyl)benzyl)carbamoyl)-1-isopropyl-3,4-dihydroisoquinolin-2(1H)-yl)methyl)piperidine-1-carboxylate]",,100 to 1000 nM,100 to 1000 nM
"CCS(=O)(=O)c1ccc(CNC(=O)c2ccc3c(c2)CN(c2nccc(C(F)(F)F)n2)C[C@H]3C(C)C)cc1 (single isomer, unassigned) [Hy7-14.1]",> 1000 nM,< 100 nM,
"CCS(=O)(=O)c1ccc([C@H](CO)NC(=O)c2ccc3c(OC[C@H]4CC[C@H](C(F)(F)F)CC4)nccc3c2)cc1 [Hy1A-8, N-((R)-1-(4-(ethylsulfonyl)phenyl)-2-hydroxyethyl)-1-(((1r,4R)-4-(trifluoromethyl)cyclohexyl)methoxy)isoquinoline-6-carboxamide]",,< 100 nM,100 to 1000 nM
"CCS(=O)(=O)c1ccc(CNC(=O)c2ccc3c(c2)CN(c2ncc(-c4ccc(=O)[nH]c4)cn2)C[C@H]3C(C)C)cc1 (single isomer, unassigned) [Hy7-21.1]",100 to 1000 nM,< 100 nM,
"CCS(=O)(=O)c1ccc(CNC(=O)c2ccc3c(c2)CCN(Cc2ccc(OC(F)F)nc2)[C@H]3C(C)C)cc1 (single isomer, unassigned) [Hy2A-25.1]",,< 100 nM,< 100 nM
"CCS(=O)(=O)c1ccc([C@@H](CO)NC(=O)c2ccc3c(OC[C@H]4CC[C@H](C(F)(F)F)CC4)nc(C)cc3c2)cc1 [Hy1A-16, N-((S)-1-(4-(ethylsulfonyl)phenyl)-2-hydroxyethyl)-3-methyl-1-(((1r,4S)-4-(trifluoromethyl)cyclohexyl)methoxy)isoquinoline-6-carboxamide]",,< 100 nM,< 100 nM
"CCS(=O)(=O)c1ccc(CNC(=O)c2ccc3c(c2)C(C)(C)CN(Cc2ccc(C#N)cc2)C3C(C)C)cc1 (single isomer, unassigned) [Hy2A-23.2]",,< 100 nM,100 to 1000 nM
"CCS(=O)(=O)c1ccc([C@H](CO)NC(=O)c2ccc3c(C4CC4)n(C[C@H]4CC[C@H](C(F)(F)F)CC4)nc3c2)nc1 [Hy3A-6, 3-cyclopropyl-N-((R)-1-(5-(ethylsulfonyl)pyridin-2-yl)-2-hydroxyethyl)-2-(((1r,4R)-4-(trifluoromethyl)cyclohexyl)methyl)-2H-indazole-6-carboxamide]",,< 100 nM,< 100 nM
"CCS(=O)(=O)c1ccc(CNC(=O)c2ccc3c(c2)CN(c2ncc(C(F)(F)F)cn2)C[C@H]3C(C)C)cc1 (single isomer, unassigned) [Hy7-15.1]",100 to 1000 nM,< 100 nM,
